The source made the active and inactive calls. The rule behind the calls is not given here.
Experiments:
Test in all cases: CXCR6 receptor antagonists, dose response, cell-based, beta-arrestin, DiscoveRx, APJ panel, uHTS hits (AID 624129)
[1] = target: Beta-galactosidase (Escherichia coli) (UniProt Q8VNN2); settings: CXCR6 beta-arrestin (DiscoveRx) antagonist cell assay, b-galactosidase
[2] = target: Apelin receptor (Homo sapiens) (UniProt P35414); settings: CXCR6 beta-arrestin (DiscoveRx) antagonist cell assay, APJ
[3] = target: C-X-C chemokine receptor type 6 (Homo sapiens) (UniProt O00574); settings: CXCR6 beta-arrestin (DiscoveRx) antagonist cell assay; for inhibition: CXCR6, run 1, dose range 2, at 80 µM (top of the series)
Sequence of C-X-C chemokine receptor type 6 (Homo sapiens) (O00574 whole entry, looked up): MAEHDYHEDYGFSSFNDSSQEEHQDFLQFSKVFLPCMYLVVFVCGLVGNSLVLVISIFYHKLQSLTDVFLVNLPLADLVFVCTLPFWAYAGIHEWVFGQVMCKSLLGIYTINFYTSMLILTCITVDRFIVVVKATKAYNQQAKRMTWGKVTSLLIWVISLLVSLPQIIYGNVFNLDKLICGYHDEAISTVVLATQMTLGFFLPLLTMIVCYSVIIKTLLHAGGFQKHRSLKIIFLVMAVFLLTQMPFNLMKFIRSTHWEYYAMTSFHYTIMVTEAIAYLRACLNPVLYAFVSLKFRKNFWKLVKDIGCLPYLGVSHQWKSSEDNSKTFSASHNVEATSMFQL

[4] = target: C-C chemokine receptor type 6 (Homo sapiens) (UniProt P51684); settings: CXCR6 beta-arrestin (DiscoveRx) antagonist cell assay
[5] = dose range 1, mean IC50 across replicates
[6] = CXCR6, dose range 1, mean IC50 across replicates
[7] = CCR6, dose range 1, mean IC50 across replicates

Sequence of Beta-galactosidase (Escherichia coli) (Q8VNN2 whole entry, looked up): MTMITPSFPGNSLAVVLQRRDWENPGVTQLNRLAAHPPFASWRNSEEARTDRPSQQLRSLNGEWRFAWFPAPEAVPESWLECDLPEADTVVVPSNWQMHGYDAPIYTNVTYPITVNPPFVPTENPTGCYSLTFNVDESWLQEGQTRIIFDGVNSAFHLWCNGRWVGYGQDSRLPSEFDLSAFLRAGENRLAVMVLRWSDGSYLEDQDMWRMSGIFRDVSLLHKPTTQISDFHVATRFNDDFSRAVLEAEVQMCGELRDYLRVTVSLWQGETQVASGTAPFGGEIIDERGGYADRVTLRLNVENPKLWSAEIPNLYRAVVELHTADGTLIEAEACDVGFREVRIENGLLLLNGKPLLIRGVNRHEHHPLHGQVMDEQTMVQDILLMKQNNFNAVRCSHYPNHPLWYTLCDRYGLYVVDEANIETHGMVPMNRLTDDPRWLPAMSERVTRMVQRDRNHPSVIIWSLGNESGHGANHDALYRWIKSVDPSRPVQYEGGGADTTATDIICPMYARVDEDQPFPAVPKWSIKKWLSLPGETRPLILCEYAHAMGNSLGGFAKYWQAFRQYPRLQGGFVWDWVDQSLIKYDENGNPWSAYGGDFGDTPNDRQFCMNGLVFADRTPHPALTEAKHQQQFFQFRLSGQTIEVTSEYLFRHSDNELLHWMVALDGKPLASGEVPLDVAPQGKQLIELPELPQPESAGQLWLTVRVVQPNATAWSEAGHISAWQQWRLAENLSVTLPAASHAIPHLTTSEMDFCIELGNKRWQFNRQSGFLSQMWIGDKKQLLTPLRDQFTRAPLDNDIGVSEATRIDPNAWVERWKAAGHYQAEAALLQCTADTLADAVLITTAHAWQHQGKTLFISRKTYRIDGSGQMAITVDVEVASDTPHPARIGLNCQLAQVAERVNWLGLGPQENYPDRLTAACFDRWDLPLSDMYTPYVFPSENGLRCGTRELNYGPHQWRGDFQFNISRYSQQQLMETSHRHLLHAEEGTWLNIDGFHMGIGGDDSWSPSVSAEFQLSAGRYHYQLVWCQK

SMILES	IC50 ([1]; dose range 1)	IC50 [1, 5] [µM]	IC50 ([2]; dose range 1)	IC50 [2, 5] [µM]	IC50 ([2]; run 2, dose range 1) [µM]	IC50 ([2]; run 3, dose range 1) [µM]	IC50 ([3]; CXCR6, dose range 1)	IC50 [3, 6] [µM]	IC50 ([3]; CXCR6, run 1, dose range 2) [µM]	IC50 ([3]; CXCR6, run 2, dose range 1) [µM]	IC50 ([3]; CXCR6, run 2, dose range 2) [µM]	IC50 ([4]; CCR6, dose range 1) [µM]	IC50 [4, 7] [µM]	IC50 ([4]; CCR6, run 2, dose range 1) [µM]	inhibition [3] [%]
C/C(=N\NC(=O)C(c1ccccc1)c1ccccc1)c1ccccn1	> 80 µM (inactive)	> 80	7.16 µM	12	9.32	19.6	3.04 µM	4.66	2.25	10.9	2.44	1.99	2.25	2.52	–
CCCCCCN1C=C/C(=C\C=C(C#N)C#N)c2ccccc21	> 80 µM (inactive)	> 80	26.9 µM	35.4	52.3	27.1	inactive	42.5	–	43.9	–	23.4	19.9	16.3	158
CC1(C)CC(=O)C(C=Nc2ccc(C(=O)c3ccccc3)cc2N=CC2=C(O)CC(C)(C)CC2=O)=C(O)C1	> 80 µM (inactive)	> 80	inactive	60	62.7	75.9	inactive	11.2	0.963	36.3	2.7	3.9	5.09	6.27	–
C/C(=N\NC(=O)COc1ccccc1-c1ccccc1)c1ccccn1	> 80 µM (inactive)	> 80	2.32 µM	2.46	2.59	> 80	2.76 µM	2.31	2.01	2.94	1.51	2.07	2.25	2.44	–
COc1cc(/C=C/c2ccc3cccc(O)c3n2)cc(OC)c1OC	> 80 µM (inactive)	> 80	4.36 µM	5.15	4.59	6.51	3.23 µM	3.7	3.35	4.11	4.09	3.45	4.03	4.62	–
C=CS(=O)(=O)c1ccc(Oc2ccc(S(=O)(=O)C=C)cc2)cc1	> 80 µM (inactive)	> 80	13.1 µM	12.2	9.91	13.7	10.2 µM	10.8	8.79	12.2	11.9	7.57	7.23	6.88	–
O=[N+]([O-])c1ccc(Sc2cccc3cccnc23)c([N+](=O)[O-])c1	> 80 µM (inactive)	> 80	3.05 µM	3.73	4.26	3.89	5 µM	4	3.2	4.65	3.15	3.32	4.21	5.09	–
N#CC(C#N)=C1C=CC=CN1/C(=C\c1ccco1)C(=O)c1ccc(Cl)cc1	15.1 µM	15.1	30.1 µM	32.5	33.6	33.7	inactive	28	–	25	–	20.9	18.7	16.4	125
CC(Oc1ccc(F)cc1)C(=O)Nc1nc(-c2ccccn2)cs1 (centres undefined)	> 80 µM (inactive)	> 80	9.28 µM	9.34	8.14	10.6	8.77 µM	7.74	5.99	8.41	7.81	7.82	8.7	9.57	–
Nc1cc(Cl)c2nonc2c1[N+](=O)[O-]	> 80 µM (inactive)	> 80	10.8 µM	20.6	13.5	37.6	11.5 µM	8.28	7.05	7.17	7.35	5.46	7.31	9.16	–
CN(C)c1nc(=NCc2ccco2)ss1	> 80 µM (inactive)	> 80	31.8 µM	24.9	18.1	> 80	inactive	55.9	–	33.6	–	43.4	38.8	34.2	82.8
CC(=O)OC1C2(CC3N4C(=O)C5(CO)SSC4(CC31O)C(=O)N5C)OC(C)C(C)(C)C2=O (centres undefined)	> 80 µM (inactive)	> 80	1.1 µM	1.22	0.918	1.64	0.925 µM	0.724	0.497	0.936	0.54	1.34	1.35	1.36	–
COc1ccc(C(=O)/C=C/C(=O)N(CC(=O)NC2CCCCC2)Cc2cccs2)c(O)c1	> 80 µM (inactive)	> 80	–	> 80	> 80	> 80	> 80 µM (inactive)	> 80	–	> 80	–	–	> 80	> 80	-73
O=C(Cn1sc2ccccc2c1=O)NC12CC3CC(CC(C3)C1)C2	> 80 µM (inactive)	> 80	2.02 µM	3.22	5.54	2.1	2.69 µM	2.42	–	2.16	–	1.54	1.66	1.78	70.8
COC(=O)c1ccc2c(c1)C(C)(C)C(/C=C/c1ccc(OC)c(OC)c1OC)=[N+]2C	> 80 µM (inactive)	> 80	15.1 µM	15	14.3	15.8	11.4 µM	9.1	7.35	10.4	7.23	7.5	9.27	11	–
Cc1cccc(CSc2cccc3cccnc23)c1	> 80 µM (inactive)	> 80	2.86 µM	3.95	4.91	4.08	3.79 µM	3.51	2.78	4.39	3.09	3.94	4.64	5.33	–
CCCC(=O)OCCNc1cc(Sc2nc3ccccc3[nH]2)c2nonc2c1[N+](=O)[O-]	inactive	50.4	12.4 µM	9.49	5.87	10.2	5.82 µM	6.71	7.57	6.36	7.1	5.26	5.55	5.83	–
O=C1C=CC2(C=C1)O[C@H](Cc1ccccc1)[C@@H](Cc1ccccc1)O2	> 80 µM (inactive)	> 80	7.98 µM	8.39	8.95	8.25	8.93 µM	8.35	6.66	7.5	10.3	4.44	4.75	5.06	–
Cc1ccc(C(=O)/C=C/C(=O)c2ccc(C)cc2)cc1	> 80 µM (inactive)	> 80	–	> 80	> 80	> 80	> 80 µM (inactive)	> 80	–	> 80	–	–	> 80	> 80	19.4
CC(=O)OCCCNc1cc(Sc2ccc(Cl)cc2)c2nonc2c1[N+](=O)[O-]	39.8 µM	39.8	5.08 µM	4.65	4.27	4.6	3.22 µM	3.05	–	2.88	–	1.97	2.12	2.27	145
CCC(=O)OCCNc1cc(Sc2nc3ccccc3[nH]2)c2nonc2c1[N+](=O)[O-]	27.1 µM	27.1	9.49 µM	7.79	6.65	7.23	4.57 µM	5.64	5.85	6.71	5.42	4.73	4.66	4.58	–
CC(=O)OCCCNc1cc(Sc2ccc(C)cc2)c2nonc2c1[N+](=O)[O-]	> 80 µM (inactive)	> 80	–	> 80	> 80	> 80	> 80 µM (inactive)	> 80	–	> 80	–	–	> 80	> 80	-24.2

Reference: PubChem BioAssay AID624129 (Sanford-Burnham Center for Chemical Genomics, 2012)
